Reference: patent publication US20250282799A1, “SUBSTITUTED PYRIDO[4,3-d]PYRIMIDINES AS KRAS MODULATORS” (Alterome Therapeutics, Inc., priority 2023, published 2025)

Test system: KRAS G12V dependent lung adenocarcinoma cell line, NCI-H441
Experiment: Cellular pERK (Thr202/Tyr204) FRET/HTRF assay
Assay type: cell-based
Conditions: Homo sapiens, NCI-H441, pERK HTRF, NCI-H441 cells (KRAS G12V)
How it was run: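 NCI-H441 cells (KRAS G12V) plated overnight at 37 °C, then exposed to compounds for 1 hr at 37 °C, 5% CO2; DMSO as negative control. Lysates read by Eu-cryptate/d2 sandwich FRET (665 nm) for ERK1/2 phosphorylated at Thr202/Tyr204; IC50 from curve fit.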

IC50 [nM]	Compound
< 50	[2H]C([2H])([2H])Oc1c(C#N)c(F)cc2cc(N)cc(-c3ncc4c(N5CCCC[C@H]6[C@H](F)[C@H]65)nc(OC([2H])([2H])[C@@]56CCCN5C[C@H](F)C6)nc4c3F)c12 [Example 50, 6-Amino-3-fluoro-8-(8-fluoro-4-((1S,7R,8S)-8-fluoro-2-azabicyclo[5.1.0]octan-2-yl)-2-(((2R,7aS)-2-fluorotetrahydro-1H-pyrrolizin-7a(5H)-yl)methoxy-d2)pyrido[4,3-d]pyrimidin-7-yl)-1-(methoxy-d3)-2-naphthonitrile]
500 to 10000	[2H]C([2H])(Oc1nc(N2CCC[C@@H]3C[C@@H]32)c2cnc(-c3cc(N)cc4cc(F)c(F)c(C#C)c34)c(F)c2n1)[C@@]12CCCN1C[C@H](F)C2 [Example 51, 4-(4-((1S,6R)-2-Azabicyclo[4.1.0]heptan-2-yl)-8-fluoro-2-(((2R,7aS)-2-fluorotetrahydro-1H-pyrrolizin-7a(5H)-yl)methoxy-d2)pyrido[4,3-d]pyrimidin-7-yl)-5-ethynyl-6,7-difluoronaphthalen-2-amine]
50 to 500	[2H]C([2H])(Oc1nc(N2CCC[C@H]3C[C@H]32)c2cnc(-c3cc(N)cc4cc(F)c(F)c(C#C)c34)c(F)c2n1)[C@@]12CCCN1C[C@H](F)C2 [Example 52, 4-(4-((1R,6S)-2-azabicyclo[4.1.0]heptan-2-yl)-8-fluoro-2-(((2R,7aS)-2-fluorotetrahydro-1H-pyrrolizin-7a(5H)-yl)methoxy-d2)pyrido[4,3-d]pyrimidin-7-yl)-5-ethynyl-6,7-difluoronaphthalen-2-amine]
50 to 500	[2H]C([2H])(Oc1nc(N2CCC[C@@H]3[C@@H](F)[C@@H]32)c2cnc(-c3cc(N)cc4cc(F)c(F)c(C#C)c34)c(F)c2n1)[C@@]12CCCN1C[C@H](F)C2 [Example 53, 5-Ethynyl-6,7-difluoro-4-(8-fluoro-4-((1R,6S,7R)-7-fluoro-2-azabicyclo[4.1.0]heptan-2-yl)-2-(((2R,7aS)-2-fluorotetrahydro-1H-pyrrolizin-7a(5H)-yl)methoxy-d2)pyrido[4,3-d]pyrimidin-7-yl)naphthalen-2-amine]
< 50	[2H]C([2H])(Oc1nc(N2CCC[C@H]3[C@H](F)[C@H]32)c2cnc(-c3cc(N)cc4cc(F)c(F)c(C#C)c34)c(F)c2n1)[C@@]12CCCN1C[C@H](F)C2 [Example 54, 5-Ethynyl-6,7-difluoro-4-(8-fluoro-4-((1S,6R,7S)-7-fluoro-2-azabicyclo[4.1.0]heptan-2-yl)-2-(((2R,7aS)-2-fluorotetrahydro-1H-pyrrolizin-7a(5H)-yl)methoxy-d2)pyrido[4,3-d]pyrimidin-7-yl)naphthalen-2-amine]
500 to 10000	[2H]C([2H])(Oc1nc(N2CCCCC[C@@H]3C[C@@H]32)c2cnc(-c3cc(N)cc4cc(F)c(F)c(C#C)c34)c(F)c2n1)[C@@]12CCCN1C[C@H](F)C2 [Example 55, 4-(4-((1S,8R)-2-azabicyclo[6.1.0]nonan-2-yl)-8-fluoro-2-(((2R,7aS)-2-fluorotetrahydro-1H-pyrrolizin-7a(5H)-yl)methoxy-d2)pyrido[4,3-d]pyrimidin-7-yl)-5-ethynyl-6,7-difluoronaphthalen-2-amine]
< 50	[2H]C([2H])(Oc1nc(N2CCCCC[C@H]3C[C@H]32)c2cnc(-c3cc(N)cc4cc(F)c(F)c(C#C)c34)c(F)c2n1)[C@@]12CCCN1C[C@H](F)C2 [Example 56, 4-(4-((1R,8S)-2-azabicyclo[6.1.0]nonan-2-yl)-8-fluoro-2-(((2R,7aS)-2-fluorotetrahydro-1H-pyrrolizin-7a(5H)-yl)methoxy-d2)pyrido[4,3-d]pyrimidin-7-yl)-5-ethynyl-6,7-difluoronaphthalen-2-amine]
50 to 500	C#Cc1c(F)ccc2cc(N)cc(-c3ncc4c(N5CCCCC6C5C6(F)F)nc(OC[C@@]56CCCN5C[C@H](F)C6)nc4c3F)c12 (stereo partly drawn) [Example 57, 4-(4-(8,8-Difluoro-2-azabicyclo[5.1.0]octan-2-yl)-8-fluoro-2-(((2R,7aS)-2-fluorotetrahydro-1H-pyrrolizin-7a(5H)-yl)methoxy)pyrido[4,3-d]pyrimidin-7-yl)-5-ethynyl-6-fluoronaphthalen-2-amine]
500 to 10000	[2H]C([2H])(Oc1nc(N2CCCCC[C@@H]3[C@@H](F)[C@@H]32)c2cnc(-c3cc(N)cc4cc(F)c(F)c(C#C)c34)c(F)c2n1)[C@@]12CCCN1C[C@H](F)C2 [Example 59, 5-Ethynyl-6,7-difluoro-4-(8-fluoro-4-((1R,8S,9R)-9-fluoro-2-azabicyclo[6.1.0]nonan-2-yl)-2-(((2R,7aS)-2-fluorotetrahydro-1H-pyrrolizin-7a(5H)-yl)methoxy-d2)pyrido[4,3-d]pyrimidin-7-yl)naphthalen-2-amine]
< 50	[2H]C([2H])(Oc1nc(N2CCCCC[C@H]3[C@H](F)[C@H]32)c2cnc(-c3cc(N)cc4cc(F)c(F)c(C#C)c34)c(F)c2n1)[C@@]12CCCN1C[C@H](F)C2 [Example 60, 5-Ethynyl-6,7-difluoro-4-(8-fluoro-4-((1S,8R,9S)-9-fluoro-2-azabicyclo[6.1.0]nonan-2-yl)-2-(((2R,7aS)-2-fluorotetrahydro-1H-pyrrolizin-7a(5H)-yl)methoxy-d2)pyrido[4,3-d]pyrimidin-7-yl)naphthalen-2-amine]
500 to 10000	[2H]C([2H])(Oc1nc(N2CCOC[C@@H]3C[C@@H]32)c2cnc(-c3cc(N)cc4cc(F)c(F)c(C#C)c34)c(F)c2n1)[C@@]12CCCN1C[C@H](F)C2 [Example 61, 4-(4-((1S,7R)-5-Oxa-2-azabicyclo[5.1.0]octan-2-yl)-8-fluoro-2-(((2R,7aS)-2-fluorotetrahydro-1H-pyrrolizin-7a(5H)-yl)methoxy-d2)pyrido[4,3-d]pyrimidin-7-yl)-5-ethynyl-6,7-difluoronaphthalen-2-amine]
500 to 10000	[2H]C([2H])(Oc1nc(N2CCC[C@@H]3[C@H](F)[C@@H]32)c2cnc(-c3cc(N)cc4cc(F)c(F)c(C#C)c34)c(F)c2n1)[C@@]12CCCN1C[C@H](F)C2 [Example 63, 5-Ethynyl-6,7-difluoro-4-(8-fluoro-4-((1R,6S,7S)-7-fluoro-2-azabicyclo[4.1.0]heptan-2-yl)-2-(((2R,7aS)-2-fluorotetrahydro-1H-pyrrolizin-7a(5H)-yl)methoxy-d2)pyrido[4,3-d]pyrimidin-7-yl)naphthalen-2-amine]
500 to 10000	[2H]C([2H])(Oc1nc(N2CCC[C@H]3[C@@H](F)[C@H]32)c2cnc(-c3cc(N)cc4cc(F)c(F)c(C#C)c34)c(F)c2n1)[C@@]12CCCN1C[C@H](F)C2 [Example 64, 5-Ethynyl-6,7-difluoro-4-(8-fluoro-4-((1S,6R,7R)-7-fluoro-2-azabicyclo[4.1.0]heptan-2-yl)-2-(((2R,7aS)-2-fluorotetrahydro-1H-pyrrolizin-7a(5H)-yl)methoxy-d2)pyrido[4,3-d]pyrimidin-7-yl)naphthalen-2-amine]
< 50	[2H]C([2H])([2H])Oc1c(F)c(F)cc2cc(N)cc(-c3ncc4c(N5CCCC[C@H]6[C@H](F)[C@H]65)nc(OC([2H])([2H])[C@@]56CCCN5C[C@H](F)C6)nc4c3F)c12 [Example 65, 6,7-Difluoro-4-(8-fluoro-4-((1S,7R,8S)-8-fluoro-2-azabicyclo[5.1.0]octan-2-yl)-2-(((2R,7aS)-2-fluorotetrahydro-1H-pyrrolizin-7a(5H)-yl)methoxy-d2)pyrido[4,3-d]pyrimidin-7-yl)-5-(methoxy-d3)naphthalen-2-amine]
< 50	[2H]C([2H])(Oc1nc(N2CCCC[C@H]3[C@H](F)[C@H]32)c2cnc(-c3cc(N)cc4cc(F)c(F)c(OCF)c34)c(F)c2n1)[C@@]12CCCN1C[C@H](F)C2 [Example 66, 6,7-Difluoro-4-(8-fluoro-4-((1S,7R,8S)-8-fluoro-2-azabicyclo[5.1.0]octan-2-yl)-2-(((2R,7aS)-2-fluorotetrahydro-1H-pyrrolizin-7a(5H)-yl)methoxy-d2)pyrido[4,3-d]pyrimidin-7-yl)-5-(fluoromethoxy) naphthalen-2-amine]
< 50	[2H]C([2H])(Oc1nc(N2CCCC[C@H]3[C@H](F)[C@H]32)c2cnc(-c3cc(N)cc4cc(F)c(F)c(OC(F)F)c34)c(F)c2n1)[C@@]12CCCN1C[C@H](F)C2 [Example 67, 5-(Difluoromethoxy)-6,7-difluoro-4-(8-fluoro-4-((1S,7R,8S)-8-fluoro-2-azabicyclo[5.1.0]octan-2-yl)-2-(((2R,7aS)-2-fluorotetrahydro-1H-pyrrolizin-7a(5H)-yl)methoxy-d2)pyrido[4,3-d]pyrimidin-7-yl)naphthalen-2-amine]
< 50	[2H]C([2H])([2H])Oc1c(F)ccc2cccc(-c3ncc4c(N5CCCC[C@H]6[C@H](F)[C@H]65)nc(OC([2H])([2H])[C@@]56CCCN5C[C@H](F)C6)nc4c3F)c12 [Example 68, 8-Fluoro-7-(7-fluoro-8-(methoxy-d3)naphthalen-1-yl)-4-((1S,7R,8S)-8-fluoro-2-azabicyclo[5.1.0]octan-2-yl)-2-(((2R,7aS)-2-fluorotetrahydro-1H-pyrrolizin-7a(5H)-yl)methoxy-d2)pyrido[4,3-d]pyrimidine]
< 50	[2H]C([2H])([2H])Oc1c(F)c(F)c(F)c2cc(N)cc(-c3ncc4c(N5CCCC[C@H]6[C@H](F)[C@H]65)nc(OC([2H])([2H])[C@@]56CCCN5C[C@H](F)C6)nc4c3F)c12 [Example 69, 6,7,8-Trifluoro-4-(8-fluoro-4-((1S,7R,8S)-8-fluoro-2-azabicyclo[5.1.0]octan-2-yl)-2-(((2R,7aS)-2-fluorotetrahydro-1H-pyrrolizin-7a(5H)-yl)methoxy-d2)pyrido[4,3-d]pyrimidin-7-yl)-5-(methoxy-d3)naphthalen-2-amine]
< 50	[2H]C([2H])(Oc1nc(N2CCCC[C@H]3[C@H](F)[C@H]32)c2cnc(-c3cc(N)cc4c(F)c(F)c(F)c(C#C)c34)c(F)c2n1)[C@@]12CCCN1C[C@H](F)C2 [Example 70, 5-Ethynyl-6,7,8-trifluoro-4-(8-fluoro-4-((1S,7R,8S)-8-fluoro-2-azabicyclo[5.1.0]octan-2-yl)-2-(((2R,7aS)-2-fluorotetrahydro-1H-pyrrolizin-7a(5H)-yl)methoxy-d2)pyrido[4,3-d]pyrimidin-7-yl)naphthalen-2-amine]
